The text below walks through data of ChEMBL document CHEMBL6109161, “Novel Pyrazolo[1,5-a]pyrimidine-3,5-diamines as nSMase2 Inhibitors” (ACS Med Chem Lett, 2025).

The assay is described as follows: Inhibition of recombinant human neutral sphingomyelinase 2 using […] as substrate in presence of alkaline phosphatase, choline oxidase and horseradish peroxidase by fluorescence-based coupled assay.
For `CC1CCCN1c1ccn2ncc(N(C)C)c2n1` (stereo unspecified), the IC50 is 70 nM.

Turning to `CN(C)c1cnn2ccc(N3CCOCC3)nc12`, the IC50 worked out at 60 nM.

With `COc1ccc(CNc2ccn3ncc(N(C)C)c3n2)cc1OC`, the IC50 is 30 nM.

Regarding `CN(C)c1cnn2ccc(NCc3ccccc3)nc12`, the IC50 was found to be 80 nM.

As to `CN(C)c1cnn2ccc(NCc3ccc(C(F)(F)F)cc3)nc12`, the concentration for half-maximal inhibition (IC50) was 40 nM.

On to `CN(C)c1ccc(CNc2ccn3ncc(N(C)C)c3n2)cc1`, for which the concentration for half-maximal inhibition (IC50) was 100 nM.

Broadly, the IC50 is the midpoint of a concentration-inhibition curve.
